# Columns and labels:
# Experiment in all cases: relative viability (nuclei count vs DMSO), 5 days (fraction); higher = more cells survive
# Sulindac = compound: CC1=C(CC(=O)O)c2cc(F)ccc2/C1=C\c1ccc([S+](C)[O-])cc1 [Sulindac]
# In short: (§1)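 A plate was accepted only when its control CV was below 25% and the cells had doubled at least once. Viability is defined from nuclear counts as treated wells divided by vehicle wells, with the median taken across plates. That median covers lung cancer cell lines grown in 1536-well plates, dosed by pinning at five √10-spaced library-drug concentrations, and counted in MetaXpress from 4× Hoechst images after 5 days.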
# Staurosporine = compound: CN[C@@H]1C[C@H]2O[C@@](C)([C@@H]1OC)n1c3ccccc3c3c4c(c5c6ccccc6n2c5c31)C(=O)NC4 [Staurosporine]
# In short: as §1
# 5-Fluorouracil = compound: O=c1[nH]cc(F)c(=O)[nH]1 [5-Fluorouracil]
# In short: as §1
Cell Line,relative viability (Sulindac; 0.08 µM),relative viability (Sulindac; 0.253 µM),relative viability (Sulindac; 0.8 µM),relative viability (Sulindac; 2.53 µM),relative viability (Sulindac; 8 µM),relative viability (Staurosporine; 0.005 µM),relative viability (Staurosporine; 0.01581 µM),relative viability (Staurosporine; 0.05 µM),relative viability (Staurosporine; 0.1581 µM),relative viability (Staurosporine; 0.5 µM),relative viability (5-Fluorouracil; 0.02 µM),relative viability (5-Fluorouracil; 0.2 µM),relative viability (5-Fluorouracil; 0.6325 µM),relative viability (5-Fluorouracil; 2 µM)
201T,1.02,1,1,0.977,1.09,0.968,0.564,0.854,0.563,0.279,0.997,0.774,0.345,0.335
A549,1.13,1.04,0.754,1.05,1.17,0.716,0.377,0.256,0.0723,0.0395,1.08,0.854,0.338,0.136
A-427,1.16,1.01,0.894,1,1.15,0.799,0.236,0.337,0.146,0.139,0.939,1.03,0.9,0.575
ABC-1,1.07,0.871,0.981,0.838,1.3,0.42,0.283,0.262,0.172,0.129,1.04,1.03,0.847,0.788
BEN,1.13,0.963,0.853,0.967,1.16,1.12,0.905,0.516,0.396,0.237,0.912,0.865,0.68,0.675
CAL-12T,1.05,1.09,0.864,0.946,1.12,0.34,0.223,–,0.15,0.144,1.08,1.03,0.659,0.448
COR-L23,1.41,1.08,0.7,1.01,1.22,0.765,0.443,0.289,0.123,0.0808,1,0.995,0.476,0.278
COR-L 105,1.03,0.894,0.891,0.91,1.25,0.636,0.295,0.357,0.274,0.193,0.896,0.927,0.819,0.5
Calu-6,1.11,1.03,0.835,1.04,1.22,0.912,0.553,0.41,0.126,0.0704,1.07,1.04,0.872,0.508
ChaGo-K-1,1.09,1.02,0.863,1.03,1.12,1.03,–,0.871,0.307,0.228,1.01,0.964,0.766,0.612
EBC-1,1.12,1.14,0.705,1.09,1.1,0.623,0.395,0.239,0.2,0.12,1.03,0.979,0.934,0.619
EKVX,1.05,1.01,0.832,0.941,1.08,0.758,0.417,0.351,0.256,0.146,0.835,0.312,–,0.176
EMC-BAC-2,1.09,0.976,0.869,0.968,1.19,0.437,0.213,0.222,0.21,0.259,1.07,1.06,1.03,0.924
EPLC-272H,0.97,0.797,0.762,0.857,1.18,0.781,0.192,0.247,0.106,0.0993,0.732,0.706,0.397,0.262
H3255,0.943,0.968,0.884,1,1.1,0.596,0.432,0.363,0.267,0.145,0.901,1.09,0.89,0.712
HARA,1.1,1.01,0.899,0.979,1.11,0.696,0.387,0.36,0.219,0.108,1.03,1.33,1,0.573
HCC-15,1.14,1.07,0.843,0.986,1.13,0.92,–,0.636,0.137,0.119,1.04,1.11,0.711,0.413
HCC-44,0.986,1.01,1.02,0.935,1.04,1.01,0.384,0.404,0.228,0.14,1.05,0.941,0.55,0.349
HCC-78,1.14,0.958,0.759,0.913,0.961,0.88,0.666,0.586,0.363,0.353,0.896,1.13,0.603,0.404
HCC-366,1.2,1.08,0.757,1,1.08,1.05,–,0.911,0.15,0.0345,1.03,1.02,0.687,0.138
HCC-827,0.99,1.09,0.97,0.957,1.09,1.03,0.701,0.723,0.48,0.36,0.855,1.01,0.667,0.469
HOP-62,1.17,1.13,0.926,1.13,1.09,0.83,0.298,0.183,0.138,0.109,1.03,1,0.971,0.877
IA-LM,0.835,1.07,–,1.02,1.01,0.46,0.177,0.17,0.107,0.0831,0.939,0.519,0.295,0.241
LC-2-ad,1.19,1.03,0.845,0.978,1.1,0.929,0.256,0.381,0.17,0.129,0.987,0.946,0.53,0.298
LCLC-97TM1,1.05,1.04,0.925,0.813,1.17,1.02,0.282,0.27,0.265,0.212,0.988,1.07,0.729,0.533

# — the supplement of paper PMC10307832
